According to patent publication US20250002840A1, “MANUFACTURING METHOD OF MIXED POWDER, MIXED POWDER, POWDER, AND POWDER MEDIUM” (FUJIFILM Corporation, priority 2022, published 2025):

Assays:
[1] = Liquid property (pH) of the solution obtained in the solubility evaluation; assay type: physicochemical
Description: A pH of the solution obtained in the evaluation of solubility was evaluated. Liquid property was evaluated according to the following evaluation standard.

[2] = Overall evaluation based on solubility and liquid property; assay type: physicochemical; conditions: based on the evaluation results of solubility and liquid property

SMILES: N[C@@H](CSSC[C@H](N)C(=O)O)C(=O)O [Comparative Example 1, L-cystine]
- Liquid property [1]: Neutral (pH of 6.0 to 8.5)
- Overall evaluation [2]: E (the solution was still turbid even after 1 hour, and/or the pH was other than neutral)
